Laboratory results reported in ChEMBL document CHEMBL1140081 (J Med Chem, 2008).

Tests used:
[1] = Metabolic stability in rhesus monkey liver microsomes; type: ADME, Macaca mulatta, Microsome
Liver microsomes [2] = test: Metabolic stability in Sprague-Dawley rat liver microsomes; type: ADME, Microsome
Liver microsomes [3] = test: Metabolic stability in human liver microsomes; type: ADME, Microsome
[4] = Metabolic stability in dog liver microsomes; type: ADME, Canis lupus familiaris, Microsome
[5] = Metabolic stability in iv dosed Sprague-Dawley rat bile assessed as raltegravir-glucuronide recovery; type: ADME, organism-based; conditions: in vivo
[6] = Metabolic stability in iv dosed Sprague-Dawley rat urine assessed as raltegravir-glucuronide recovery; type: ADME, organism-based; conditions: in vivo
[7] = Metabolic stability in iv dosed Sprague-Dawley rat urine assessed as drug recovery; type: ADME, organism-based; conditions: read-out: Drug uptake
[8] = Metabolic stability in iv dosed Sprague-Dawley rat bile assessed as drug recovery; type: ADME, organism-based; conditions: read-out: Drug uptake
[9] = Metabolic stability in iv dosed dog urine assessed as drug recovery after 0 to 24 hrs; type: ADME, organism-based, Canis lupus familiaris; conditions: read-out: Drug uptake
[10] = Metabolic stability in iv dosed dog urine assessed as drug recovery; type: ADME, organism-based, Canis lupus familiaris; conditions: read-out: Drug uptake
[11] = Metabolic stability in iv dosed dog urine assessed as raltegravir-glucuronide recovery; type: ADME, organism-based, Canis lupus familiaris; conditions: in vivo
[12] = Metabolic stability in Sprague-Dawley rat bile; type: ADME
[13] = Metabolic stability in po dosed dog bile; type: ADME, organism-based, Canis lupus familiaris; conditions: in vivo

Stability [1] | Stability (Liver microsomes [2]) | Stability (Liver microsomes [3]) | Stability [4] | Drug uptake [5] | Drug uptake [6] | dose excreted [7] | dose excreted [8] | dose excreted [9] | dose excreted [10] | Drug uptake [11] | Activity [12] | Activity [13] | Structure (SMILES)
36 µL/min/kg | 34 µL/min/kg | 9 µL/min/kg | 2 µL/min/kg | 90% | 90% | 10% | 10% | 30% | 65% | 35% |  |  | Cc1nnc(C(=O)NC(C)(C)c2nc(C(=O)NCc3ccc([19F])cc3)c(O)c(=O)n2C)o1
46 µL/min/kg | 20 µL/min/kg | 8 µL/min/kg | 3 µL/min/kg |  |  |  |  |  |  |  | 5% | 13% | CN(C)C(=O)C(=O)NC(C)(C)c1nc(C(=O)NCc2ccc([19F])cc2)c(O)c(=O)n1C
